Assays:
[1] = target: GDP-bound NRAS wild-type protein (Homo sapiens, UniProt P01111); test: Binding to NRAS by surface plasmon resonance (SPR), KD and KD ratio to KRAS; details: ratio of KD for GDP-bound NRAS wild-type protein to KD for KRAS
Outline: (§1)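 Measured at 30°C: SPR with GDP-loaded, E. coli-expressed biotin-Avi RAS captured (~100–300 RU), ascending 75 s compound injections, HBS pH 7.4 with GDP, MgCl2, 4% DMSO. KD from 1:1 fit.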

HRAS wild-type protein = HRAS wild-type protein (Homo sapiens, UniProt P01112); test: Binding to HRAS by surface plasmon resonance (SPR), KD and KD ratio to KRAS; details: ratio of KD for HRAS wild-type protein to KD for KRAS
Outline: as §1

[2] = test system: human lung cancer strain NCI-H441; assay type: cell-based
Outline: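 Signal came from […] measured per well once the reagent was added. Beforehand, cells were cultured at 37°C and 5% carbon dioxide on a compound series serially diluted in dimethyl sulfoxide.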

Chain of HRAS wild-type protein (P01112 whole entry): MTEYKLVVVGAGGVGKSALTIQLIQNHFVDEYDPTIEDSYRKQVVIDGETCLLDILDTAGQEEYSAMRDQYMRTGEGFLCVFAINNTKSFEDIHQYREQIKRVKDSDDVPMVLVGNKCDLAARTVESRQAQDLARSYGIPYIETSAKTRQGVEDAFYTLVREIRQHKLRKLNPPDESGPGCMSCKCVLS
Chain of GDP-bound NRAS wild-type protein (P01111 whole entry): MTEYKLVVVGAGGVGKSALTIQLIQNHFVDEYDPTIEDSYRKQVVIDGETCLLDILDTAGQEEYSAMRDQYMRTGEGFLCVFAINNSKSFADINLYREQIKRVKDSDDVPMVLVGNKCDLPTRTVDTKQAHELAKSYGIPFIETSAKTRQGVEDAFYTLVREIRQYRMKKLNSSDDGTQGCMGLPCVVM

Row | SMILES | NRAS /KRAS [1] | HRAS /KRAS (HRAS wild-type protein) | IC50 [2] [nM]
1 | CC[C@H](C)[C@@H]1NC(=O)[C@H](CC(C)C)N(C)C(=O)CSC[C@H](C(=O)N(C)C)N(C)C(=O)[C@H](C2CCCC2)N(C)C(=O)C2(CCCC2)NC(=O)[C@@H]2CCCN2C(=O)[C@@H](CCc2cc(F)c(C(F)(F)F)c(F)c2)NC(=O)CN(C)C(=O)[C@H](Cc2ccc(C(F)(F)F)cc2)N2CC=CC[C@@H](C2=O)N(C)C(=O)CN(C)C1=O [PP3108] | C (A compound having a KD ratio of 0.1 or more and less than 3 is denoted as C) | B (a compound having 3 or more and less than 10 is denoted as B) | 9250
2 | CCC[C@H]1C(=O)N[C@@H]([C@@H](C)CC)C(=O)N(C2CC2)CC(=O)N(C)[C@H]2C/C=C\CCN(C2=O)[C@@H](Cc2ccc(C(F)(F)F)cc2)C(=O)N(C)CC(=O)N[C@@H](CCc2cc(F)c(C(F)(F)F)c(F)c2)C(=O)N2C[C@H](OCC)C[C@H]2C(=O)N(C)C2(CCC2)C(=O)N(C)[C@@H](C2CCCC2)C(=O)N(C)[C@H](C(=O)N2CCCCC2)CC(=O)N1C [PP3110] | A (a compound having 10 or more and less than 20 is denoted as A) | A (a compound having 10 or more and less than 20 is denoted as A) | 69.9
3 | CCC[C@H]1C(=O)N[C@@H]([C@@H](C)CC)C(=O)N(C2CC2)CC(=O)N(C)[C@H]2C/C=C\CCN(C2=O)[C@@H](Cc2ccc(C)cc2)C(=O)N(C)CC(=O)N[C@@H](CCc2cc(F)c(C(F)(F)F)c(F)c2)C(=O)N2C[C@H](OCC)C[C@H]2C(=O)N(C)C2(CCC2)C(=O)N(C)[C@@H](C2CCCC2)C(=O)N(C)[C@H](C(=O)N2CCCCC2)CC(=O)N1C [PP3111] | A (a compound having 10 or more and less than 20 is denoted as A) | A (a compound having 10 or more and less than 20 is denoted as A) | 17.8
4 | CCC[C@H]1C(=O)N[C@@H]([C@@H](C)CC)C(=O)N(C2CC2)CC(=O)N(C)[C@H]2C/C=C\CCN(C2=O)[C@@H](Cc2ccc(C(F)(F)F)cc2)C(=O)N(C)CC(=O)N[C@@H](CCc2cc(F)c(C(F)(F)F)c(F)c2)C(=O)N2C[C@H](OCC)C[C@H]2C(=O)N(C)C2(CCC2)C(=O)N(C)[C@@H](C2CCCC2)C(=O)N(C)[C@H](C(=O)N2CCCC2)CC(=O)N1C [PP3112] | A (a compound having 10 or more and less than 20 is denoted as A) | B (a compound having 3 or more and less than 10 is denoted as B) | 32.4
5 | CCC[C@H]1C(=O)N[C@@H]([C@@H](C)CC)C(=O)N(C2CC2)CC(=O)N(C)[C@H]2C/C=C\CCN(C2=O)[C@@H](Cc2ccc(C)cc2)C(=O)N(C)CC(=O)N[C@@H](CCc2cc(F)c(C(F)(F)F)c(F)c2)C(=O)N2C[C@H](OCC)C[C@H]2C(=O)N(C)C2(CCC2)C(=O)N(C)[C@@H](C2CCCC2)C(=O)N(C)[C@H](C(=O)N2CCCC2)CC(=O)N1C [PP3113] | A (a compound having 10 or more and less than 20 is denoted as A) | A (a compound having 10 or more and less than 20 is denoted as A) | 6.1
6 | CCC[C@H]1C(=O)N[C@@H]([C@@H](C)CC)C(=O)N2CCC[C@H]2C(=O)N(C)[C@H]2C/C=C\CCN(C2=O)[C@@H](Cc2ccc(C(F)(F)F)cc2)C(=O)N(C)CC(=O)N[C@@H](CCc2cc(F)c(C(F)(F)F)c(F)c2)C(=O)N2C[C@H](OCC)C[C@H]2C(=O)N(C)C2(CCC2)C(=O)N(C)[C@@H](C2CCCC2)C(=O)N(C)[C@H](C(=O)N2CCCCC2)CC(=O)N1C [PP3114] | AA (a compound having 20 or more is denoted as AA) | A (a compound having 10 or more and less than 20 is denoted as A) | 14.7
7 | CCC[C@H]1C(=O)N[C@@H]([C@@H](C)CC)C(=O)N2CCC[C@H]2C(=O)N(C)[C@H]2C/C=C\CCN(C2=O)[C@@H](Cc2ccc(C)cc2)C(=O)N(C)CC(=O)N[C@@H](CCc2cc(F)c(C(F)(F)F)c(F)c2)C(=O)N2C[C@H](OCC)C[C@H]2C(=O)N(C)C2(CCC2)C(=O)N(C)[C@@H](C2CCCC2)C(=O)N(C)[C@H](C(=O)N2CCCCC2)CC(=O)N1C [PP3115] | A (a compound having 10 or more and less than 20 is denoted as A) | B (a compound having 3 or more and less than 10 is denoted as B) | 5.7
8 | CCC[C@H]1C(=O)N[C@@H]([C@@H](C)CC)C(=O)N2CCC[C@H]2C(=O)N(C)[C@H]2C/C=C\CCN(C2=O)[C@@H](Cc2ccc(C(F)(F)F)cc2)C(=O)N(C)CC(=O)N[C@@H](CCc2cc(F)c(C(F)(F)F)c(F)c2)C(=O)N2C[C@H](OCC)C[C@H]2C(=O)N(C)C2(CCC2)C(=O)N(C)[C@@H](C2CCCC2)C(=O)N(C)[C@H](C(=O)N2CCCC2)CC(=O)N1C [PP3116] | A (a compound having 10 or more and less than 20 is denoted as A) | A (a compound having 10 or more and less than 20 is denoted as A) | 7.8
9 | CCC[C@H]1C(=O)N[C@@H]([C@@H](C)CC)C(=O)N2CCC[C@H]2C(=O)N(C)[C@H]2C/C=C\CCN(C2=O)[C@@H](Cc2ccc(C)cc2)C(=O)N(C)CC(=O)N[C@@H](CCc2cc(F)c(C(F)(F)F)c(F)c2)C(=O)N2C[C@H](OCC)C[C@H]2C(=O)N(C)C2(CCC2)C(=O)N(C)[C@@H](C2CCCC2)C(=O)N(C)[C@H](C(=O)N2CCCC2)CC(=O)N1C [PP3117] | A (a compound having 10 or more and less than 20 is denoted as A) | A (a compound having 10 or more and less than 20 is denoted as A) | 2.6
10 | CCC[C@H]1C(=O)N[C@@H]([C@@H](C)CC)C(=O)N(C)CC(=O)N(C)[C@H]2C/C=C\CCN(C2=O)[C@@H](Cc2ccc(C(F)(F)F)cc2)C(=O)N(C)CC(=O)N[C@@H](CCc2cc(F)c(C(F)(F)F)c(F)c2)C(=O)N2C[C@H](OCC)C[C@H]2C(=O)N(C)C2(CCC2)C(=O)N(C)[C@@H](C2CCCC2)C(=O)N(C)[C@H](C(=O)N2CCCCC2)CC(=O)N1C [PP3118] | A (a compound having 10 or more and less than 20 is denoted as A) | B (a compound having 3 or more and less than 10 is denoted as B) | 6.7
11 | CCC[C@H]1C(=O)N[C@@H]([C@@H](C)CC)C(=O)N(C)CC(=O)N(C)[C@H]2C/C=C\CCN(C2=O)[C@@H](Cc2ccc(C)cc2)C(=O)N(C)CC(=O)N[C@@H](CCc2cc(F)c(C(F)(F)F)c(F)c2)C(=O)N2C[C@H](OCC)C[C@H]2C(=O)N(C)C2(CCC2)C(=O)N(C)[C@@H](C2CCCC2)C(=O)N(C)[C@H](C(=O)N2CCCCC2)CC(=O)N1C [PP3119] | A (a compound having 10 or more and less than 20 is denoted as A) | A (a compound having 10 or more and less than 20 is denoted as A) | 3.5
12 | CCC[C@H]1C(=O)N[C@@H]([C@@H](C)CC)C(=O)N(C)CC(=O)N(C)[C@H]2C/C=C\CCN(C2=O)[C@@H](Cc2ccc(C(F)(F)F)cc2)C(=O)N(C)CC(=O)N[C@@H](CCc2cc(F)c(C(F)(F)F)c(F)c2)C(=O)N2C[C@H](OCC)C[C@H]2C(=O)N(C)C2(CCC2)C(=O)N(C)[C@@H](C2CCCC2)C(=O)N(C)[C@H](C(=O)N2CCCC2)CC(=O)N1C [PP3120] | AA (a compound having 20 or more is denoted as AA) | A (a compound having 10 or more and less than 20 is denoted as A) | 1.9
13 | CCC[C@H]1C(=O)N[C@@H]([C@@H](C)CC)C(=O)N(C)CC(=O)N(C)[C@H]2C/C=C\CCN(C2=O)[C@@H](Cc2ccc(C)cc2)C(=O)N(C)CC(=O)N[C@@H](CCc2cc(F)c(C(F)(F)F)c(F)c2)C(=O)N2C[C@H](OCC)C[C@H]2C(=O)N(C)C2(CCC2)C(=O)N(C)[C@@H](C2CCCC2)C(=O)N(C)[C@H](C(=O)N2CCCC2)CC(=O)N1C [PP3121] | A (a compound having 10 or more and less than 20 is denoted as A) | A (a compound having 10 or more and less than 20 is denoted as A) | 1.5
14 | CCO[C@@H]1C[C@H]2C(=O)NC3(CC(C)(C)C3)C(=O)N(C)[C@@H](C3CCCC3)C(=O)N(C)[C@H](C(=O)N(C)CC)CC(=O)N(C)[C@@H]([C@@H](C)OC)C(=O)N[C@@H]([C@@H](C)CC)C(=O)N(C3CC3)CC(=O)N(C)[C@H]3C/C=C\CCN(C3=O)[C@@H](Cc3ccc(C)cc3)C(=O)N(C)CC(=O)N[C@@H](CCc3cc(F)c(C(F)(F)F)c(F)c3)C(=O)N2C1 [PP3184] | A (a compound having 10 or more and less than 20 is denoted as A) | A (a compound having 10 or more and less than 20 is denoted as A) | 30.4
15 | CCO[C@@H]1C[C@H]2C(=O)NC3(CC(C)(C)C3)C(=O)N(C)[C@@H](C3CCCC3)C(=O)N(C)[C@H](C(=O)N(C)C)CC(=O)N(C)[C@@H]([C@H](C)OC)C(=O)N[C@@H]([C@@H](C)CC)C(=O)N3CCC[C@H]3C(=O)N(C)[C@H]3C/C=C\CCN(C3=O)[C@@H](Cc3ccc(C)cc3)C(=O)N(C)CC(=O)N[C@@H](CCc3ccc(C(F)(F)F)c(Cl)c3)C(=O)N2C1 [PP3201] | A (a compound having 10 or more and less than 20 is denoted as A) | A (a compound having 10 or more and less than 20 is denoted as A) | 128

— patent EP4603105A1, “PHARMACEUTICAL COMPOSITION CONTAINING CYCLIC COMPOUND HAVING SELECTIVE KRAS INHIBITORY EFFECT AGAINST HRAS AND NRAS” (CHUGAI SEIYAKU KABUSHIKI KAISHA, priority 2022, dated 2024)
